Eleven molecules from patent US20250313572A1, “MACROCYCLIC MCL-1 INHIBITORS AND METHODS OF USE” (AbbVie Inc., priority 2017, published 2025) can be followed below.

The subject of assay [1] is AMO-1 human multiple myeloma tumor cell line. Kind of assay: AMO-1 cell viability assay (CellTiter-Glo, 24 hours). In kind it is cell-based.
Assay [2] deals with GST-MCL-1 (Homo sapiens, UniProt Q07820). The assay can be described thus: TR-FRET MCL-1 binding assay (competition with probe F-Bak). Particulars: for Ki: MCL-1 Binding Ki (nM, 10% HS), in the presence of 10% HS (human serum); for pKi: without HS, read-out: MCL-1 Binding Ki. The essentials: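 Test compounds, 11 three-fold dilutions from 25 μM final, incubated 2 hours at room temperature with GST-MCL-1, F-Bak probe and Tb-anti-GST antibody. TR-FRET read at 340/35 nm excitation with 520/525 and 495/510 nm emission. Run without human serum and with 10% HS.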

Assay [3] concerns NCI-H929 human multiple myeloma tumor cell line. The assay can be described thus: NCI-H929 cell viability assay (CellTiter-Glo, 24 hours). In kind it is cell-based. In general terms: In ATP-based viability assays light output follows the ATP content of the culture.
Description: Each concentration was tested in duplicate at least 3 independent times. A luminescent signal proportional to the number of viable cells following 24 hours of compound treatment was determined using the CellTiter-Glo® Luminescent Cell Viability Assay according to the manufacturer's recommendations (Promega Corp., Madison, WI). The plates were read in a Perkin Elmer Envision using a Luminescence protocol. To generate dose response curves the data is normalized to percent viability by setting the averages of the staurosporine (10 μM) and DMSO only control wells to 0% and 100% viability respectively.
The mark [4] stands for this setting: Homo sapiens, AMO1, 24 h, read-out: AMO-1 Viability IC50 (μM, 10% FBS), 10% FBS, 24 hours of compound treatment.
Setting [5] is: Homo sapiens, NCI-H929, 24 h, read-out: H929 Viability IC50 (μM, 10% FBS), 10% FBS, 24 hours of compound treatment.
The mark [6] stands for this setting: read-out: AMO-1 Viability IC50 (μM, 10% FBS), 10% FBS, 24 hours of compound treatment.
[7] abbreviates: read-out: H929 Viability IC50 (μM, 10% FBS), 10% FBS, 24 hours of compound treatment.

One may read the IC50 as the concentration that inhibits the measured activity by half. Broadly, the Ki is the equilibrium dissociation constant of an inhibitor or competing ligand from its target. As usually defined, the pKi is the negative decadic logarithm of the Ki, by convention in mol/L.

pKi: −log10 of the molar value. Where two headings read alike, the source gives them in different places. Some results are limits rather than exact numbers.

Chain of GST-MCL-1 (Q07820 whole entry): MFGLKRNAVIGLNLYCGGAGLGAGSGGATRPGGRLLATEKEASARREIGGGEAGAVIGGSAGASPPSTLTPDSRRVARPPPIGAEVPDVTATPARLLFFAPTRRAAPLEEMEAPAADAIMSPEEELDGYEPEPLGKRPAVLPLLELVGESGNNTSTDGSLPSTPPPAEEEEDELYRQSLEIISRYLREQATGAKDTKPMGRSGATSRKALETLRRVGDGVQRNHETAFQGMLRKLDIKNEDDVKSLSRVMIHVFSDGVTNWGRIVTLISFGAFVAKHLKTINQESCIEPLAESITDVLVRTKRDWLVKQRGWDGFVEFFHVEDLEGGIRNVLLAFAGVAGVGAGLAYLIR

On to `Cc1c(Cl)c2c(Cl)c(C)c1-c1c(-c3ccc(F)cc3)sc3ncnc(c13)O[C@@H](C(=O)O)Cc1cc(ccc1OCc1ccnc(-c3ccccc3OC[C@H](O)CO)n1)OC[C@@H](CN1CCN(C)CC1)O2` [Example 23, (7R,16R)-19,23-dichloro-10-[(2-{2-[(2R)-2,3-dihydroxypropoxy]phenyl}pyrimidin-4-yl)methoxy]-1-(4-fluorophenyl)-20,22-dimethyl-16-[(4-methylpiperazin-1-yl)methyl]-7,8,15,16-tetrahydro-18,21-etheno-13,9-(metheno)-6,14,17-trioxa-2-thia-3,5-diazacyclononadeca[1,2,3-cd]indene-7-carboxylic Acid], for which the IC50 in assay [1] (setting [4]) was 0.00222 µM. Further, in assay [2], the Ki amounted to 0.238 nM and the pKi was 10.74. The IC50 in assay [3] (setting [5]) is 0.00389 µM.

Turning to `Cc1c(Cl)c2c(Cl)c(C)c1-c1c(-c3ccc(F)cc3)sc3ncnc(c13)O[C@@H](C(=O)O)Cc1cc(ccc1OCc1ccnc([C@H]3CC[C@@H](CC(=O)O)CC3)n1)OC[C@@H](CN1CCN(C)CC1)O2` [Example 31, (7R,16R)-10-({2-[(1 s,4s)-4-(carboxymethyl)cyclohexyl]pyrimidin-4-yl}methoxy)-19,23-dichloro-1-(4-fluorophenyl)-20,22-dimethyl-16-[(4-methylpiperazin-1-yl)methyl]-7,8,15,16-tetrahydro-18,21-etheno-13,9-(metheno)-6,14,17-trioxa-2-thia-3,5-diazacyclononadeca[1,2,3-cd]indene-7-carboxylic Acid], the IC50 in assay [1] (setting [4]) was found to be 0.00743 µM. For the same molecule, in assay [2], the Ki was determined as 0.049 nM and the pKi was 11.40. The IC50 in assay [3] (setting [5]) was determined as 0.0133 µM.

Turning to `COCCOCCOCCOCCOCCOCCOCCOCCOCCOCCOCCC(=O)NCc1ccc(-c2nccc(COc3ccc4cc3C[C@H](C(=O)O)Oc3ncnc5sc(-c6ccc(F)cc6)c(c35)-c3c(C)c(Cl)c(c(Cl)c3C)O[C@H](CN3CCN(C)CC3)CO4)n2)cc1` [Example 50, (7R,16R)-19,23-dichloro-1-(4-fluorophenyl)-20,22-dimethyl-16-[(4-methylpiperazin-1-yl)methyl]-10-({2-[4-(35-oxo-2,5,8,11,14,17,20,23,26,29,32-undecaoxa-36-azaheptatriacontan-37-yl)phenyl]pyrimidin-4-yl}methoxy)-7,8,15,16-tetrahydro-18,21-etheno-13,9-(metheno)-6,14,17-trioxa-2-thia-3,5-diazacyclononadeca[1,2,3-cd]indene-7-carboxylic Acid], the IC50 was determined as 0.0676 µM in assay [1] (setting [4]) and 0.103 µM in assay [3] (setting [5]). Also, the Ki in assay [2] was 0.513 nM. Further, in assay [2], the pKi was 9.70.

As for `COCCOCCOCCOCCOC[C@H]1CCCC[C@@H]1c1nccc(COc2ccc3cc2C[C@H](C(=O)O)Oc2ncnc4sc(-c5ccc(F)cc5)c(c24)-c2c(C)c(Cl)c(c(Cl)c2C)O[C@H](CN2CCN(C)CC2)CO3)n1` (relative stereo) [Example 124, (7R,16R)-19,23-dichloro-1-(4-fluorophenyl)-20,22-dimethyl-16-[(4-methylpiperazin-1-yl)methyl]-10-({2-[(1S*,2S*)-2-(2,5,8,11,14-pentaoxapentadecan-1-yl)cyclohexyl]pyrimidin-4-yl}methoxy)-7,8,15,16-tetrahydro-18,21-etheno-13,9-(metheno)-6,14,17-trioxa-2-thia-3,5-diazacyclononadeca[1,2,3-cd]indene-7-carboxylic Acid], the IC50 in assay [1] (setting [4]) stood at 0.000355 µM. For the same molecule, in assay [2], the Ki worked out at 0.145 nM and the pKi is 10.92. In addition, the IC50 in assay [3] (setting [5]) worked out at 0.000818 µM.

As for `COCCOCCOCCOCCOCCOCC1(c2nccc(COc3ccc4cc3C[C@H](C(=O)O)Oc3ncnc5sc(-c6ccc(F)cc6)c(c35)-c3c(C)c(Cl)c(c(Cl)c3C)O[C@H](CN3CCN(C)CC3)CO4)n2)CCCCC1` [Example 88, (7R,16R)-19,23-dichloro-1-(4-fluorophenyl)-10-({2-[1-(2,5,8,11,14,17-hexaoxaoctadecan-1-yl)cyclohexyl]pyrimidin-4-yl}methoxy)-20,22-dimethyl-16-[(4-methylpiperazin-1-yl)methyl]-7,8,15,16-tetrahydro-18,21-etheno-13,9-(metheno)-6,14,17-trioxa-2-thia-3,5-diazacyclononadeca[1,2,3-cd]indene-7-carboxylic Acid], the IC50 in assay [1] (setting [4]) worked out at 0.00117 µM. Moreover, in assay [2], the Ki turned out to be 0.143 nM and the pKi is 10.48. Further, in assay [3] (setting [5]), the IC50 came out at 0.00206 µM.

With `Cc1c(Cl)c2c(Cl)c(C)c1-c1c(-c3ccc(F)cc3)sc3ncnc(c13)O[C@@H](C(=O)O)Cc1cc(ccc1OCc1ccnc(-c3ccc(OC[C@@H]4CN(C)CCO4)cc3)n1)OC[C@@H](CN1CCN(C)CC1)O2` [Example 157, (7R,16R)-19,23-dichloro-1-(4-fluorophenyl)-20,22-dimethyl-10-{[2-(4-{[(2S)-4-methylmorpholin-2-yl]methoxy}phenyl)pyrimidin-4-yl]methoxy}-16-[(4-methylpiperazin-1-yl)methyl]-7,8,15,16-tetrahydro-18,21-etheno-9,13-(metheno)-6,14,17-trioxa-2-thia-3,5-diazacyclononadeca[1,2,3-cd]indene-7-carboxylic Acid], the IC50 in assay [1] (setting [4]) stood at 0.000233 µM. Besides, in assay [2], the Ki came to 0.168 nM and the pKi is 11.10. Moreover, the IC50 in assay [3] (setting [5]) turned out to be 0.000821 µM.

Turning to `COCCOCCOCCOc1ccc(COc2ccc3cc2C[C@H](C(=O)O)Oc2ncnc4sc(-c5ccc(F)cc5)c(c24)-c2c(C)c(Cl)c(c(Cl)c2C)O[C@H](CN2CCN(C)CC2)CO3)nc1` [Example 162, (7R,16R)-19,23-dichloro-1-(4-fluorophenyl)-10-[(5-{2-[2-(2-methoxyethoxy)ethoxy]ethoxy}pyridin-2-yl)methoxy]-20,22-dimethyl-16-[(4-methylpiperazin-1-yl)methyl]-7,8,15,16-tetrahydro-18,21-etheno-13,9-(metheno)-6,14,17-trioxa-2-thia-3,5-diazacyclononadeca[1,2,3-cd]indene-7-carboxylic Acid], the IC50 in assay [1] (setting [4]) came to 0.012 µM. Besides, in assay [2], the Ki came to 0.934 nM and the pKi is 9.80. The IC50 in assay [3] (setting [5]) came out at 0.0143 µM.

Turning to `Cc1c(Cl)c2c(Cl)c(C)c1-c1c(-c3ccc(F)cc3)sc3ncnc(c13)O[C@@H](C(=O)O)Cc1cc(ccc1OCc1ccnc(C3=CCC(CC(=O)O)CC3)n1)OC[C@@H](CN1CCN(C)CC1)O2` (single isomer, unassigned) [Example 37, (7R,16R)-10-({2-[(4R*)-4-(carboxymethyl)cyclohex-1-en-1-yl]pyrimidin-4-yl}methoxy)-19,23-dichloro-1-(4-fluorophenyl)-20,22-dimethyl-16-[(4-methylpiperazin-1-yl)methyl]-7,8,15,16-tetrahydro-18,21-etheno-13,9-(metheno)-6,14,17-trioxa-2-thia-3,5-diazacyclononadeca[1,2,3-cd]indene-7-carboxylic Acid], the IC50 in assay [1] (setting [6]) is 0.0096 µM. Besides, in assay [2], the inhibition constant Ki is 0.124 nM and the pKi was 11.05. Moreover, in assay [3] (setting [7]), the IC50 amounted to 0.0167 µM.

Turning to `Cc1c(Cl)c2c(Cl)c(C)c1-c1c(-c3ccc(F)cc3)sc3ncnc(c13)O[C@@H](C(=O)O)Cc1cc(ccc1OCc1ccnc(-c3ccc(OC[C@H]4CN(C)CCCO4)cc3)n1)OC[C@@H](CN1CCN(C)CC1)O2` [Example 175, (7R,16R)-19,23-dichloro-1-(4-fluorophenyl)-20,22-dimethyl-10-{[2-(4-{[(2R)-4-methyl-1,4-oxazepan-2-yl]methoxy}phenyl)pyrimidin-4-yl]methoxy}-16-[(4-methylpiperazin-1-yl)methyl]-7,8,15,16-tetrahydro-18,21-etheno-13,9-(metheno)-6,14,17-trioxa-2-thia-3,5-diazacyclononadeca[1,2,3-cd]indene-7-carboxylic Acid], the figures for the IC50 in assay [1] (setting [4]) and in assay [3] (setting [5]) were 0.00164 µM and 0.00573 µM, respectively. Moreover, in assay [2], the Ki amounted to 0.122 nM. Further, the negative-log Ki (pKi) in assay [2] is above 11.00.

Consider `COCCOCCOCCC1CCN(C[C@@H]2COc3ccc(OCc4ccnc(-c5ccccc5OC)n4)c(c3)C[C@H](C(=O)O)Oc3ncnc4sc(-c5ccc(F)cc5)c(c34)-c3ccc(c(Cl)c3C)O2)CC1` (atropisomer, axis not shown) [Example 21, (7R,16R,21S)-19-chloro-1-(4-fluorophenyl)-16-[(4-{2-[2-(2-methoxyethoxy)ethoxy]ethyl}piperidin-1-yl)methyl]-10-{[2-(2-methoxyphenyl)pyrimidin-4-yl]methoxy}-20-methyl-7,8,15,16-tetrahydro-18,21-etheno-13,9-(metheno)-6,14,17-trioxa-2-thia-3,5-diazacyclononadeca[1,2,3-cd]indene-7-carboxylic Acid], for which, in assay [1] (setting [6]), the IC50 turned out to be 0.0143 µM. In addition, in assay [2], the Ki amounted to 0.556 nM and the pKi was 10.23. The IC50 in assay [3] (setting [7]) was determined as 0.0102 µM.

As for `CO[C@H]1O[C@H](COc2cccc(-c3nccc(COc4ccc5cc4C[C@H](C(=O)O)Oc4ncnc6sc(-c7ccc(F)cc7)c(c46)-c4ccc(c(Cl)c4C)O[C@H](CN4CCN(C)CC4)CO5)n3)c2)[C@@H](OC)[C@H](OC)[C@@H]1OC` [Example 7, methyl 6-O-{3-[4-({[(7R,16R,21S)-7-carboxy-19-chloro-1-(4-fluorophenyl)-20-methyl-16-[(4-methylpiperazin-1-yl)methyl]-7,8,15,16-tetrahydro-18,21-etheno-13,9-(metheno)-6,14,17-trioxa-2-thia-3,5-diazacyclononadeca[1,2,3-cd]inden-10-yl]oxy}methyl)pyrimidin-2-yl]phenyl}-2,3,4-tri-O-methyl-a-D-mannopyranoside], the IC50 in assay [1] (setting [4]) amounted to 0.007 µM. Also, in assay [2], the Ki worked out at 0.599 nM and the pKi was 10.27. In assay [3] (setting [5]), the IC50 stood at 0.011 µM.
